Results as given in patent US20220363662A1, “COMPOUNDS AS LXR AGONISTS” (Integral Biosciences Privated Limited, priority 2021, published 2022).

How the values were obtained:
LXR beta = target: T1, LXR beta (Homo sapiens, UniProt P55055); assay: LXR beta agonist assay (Lanthascreen TR-FRET); type: biochemical; details: LXR beta-LBD 5 nM, read-out: LXR-β EC50
T1 construct: 5 μL of 4×LXR beta-LBD was added to each well (final concentration 5 nM); purchased Thermofisher PV4658
T1 sequence (P55055 222-460 limits assumed): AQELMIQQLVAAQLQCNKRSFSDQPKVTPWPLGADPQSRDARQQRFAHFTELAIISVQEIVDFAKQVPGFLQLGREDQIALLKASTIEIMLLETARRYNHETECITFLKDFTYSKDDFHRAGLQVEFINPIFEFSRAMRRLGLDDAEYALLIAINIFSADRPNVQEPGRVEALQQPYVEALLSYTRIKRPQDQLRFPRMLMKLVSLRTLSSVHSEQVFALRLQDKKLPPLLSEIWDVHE
How it was run: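 TR-FRET coactivator recruitment: 5 nM LXR beta-LBD with 100 nM Fl-D22 peptide and 10 nM Tb-anti-GST antibody (final) in Coregulator Buffer G, 60 min at 22° C, read hourly up to 4 hours. Duplicate three-fold titrations from 30 μM; EC50 by variable-slope nonlinear regression.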

HepG2 = assay: Cell viability assay (resazurin) in HepG2; type: cell-based; details: Homo sapiens, 96 hr exposure
Method: (§1) HepG2 (ATCC® HB-8065™), hepatocellular carcinoma, A549 (ATCC® CCL-185™), lung epithelial carcinoma, MCF7 (ATCC® HTB-22™), mammary gland epithelial carcinoma, MDA-MB-231 (ATCC® HTB-26™), TNBC, MiaPaCa-2 (ATCC® CRL-1420™) & Panc-1 (ATCC® CRL-1469™), pancreatic epithelial carcinoma, HCT116 (ATCC® CCL-247™), colon epithelial carcinoma and U87MG (ATCC® HTB-14™), brain epithelial carcinoma cell lines respectively were seeded in the respective medium (DMEM, Cat #10569044 with 10% FBS, Cat #16000044; Gibco for HepG2, A549, MCF7, MDA-MB-231, MiaPaCa-2, Panc-1, HCT116 and MEM, Cat #11095080 with 10% FBS for U87MG). Cells were allowed to grow at 37° C. for 24 hr in 5% CO2 (culture conditions) in a Nuaire incubator (humidified). Serially diluted compounds (100 μl) were added to the culture plate 24 hr later and the cultures were further incubated in culture conditions for 96 hr. Experiment was terminated at the completion of 96 hr exposure to the drug by replacing the medium with 100 μl of 1 mM of resazurin (R7017; Sigma) prepared in culture medium and the plates were further incubated in culture conditions for 4 hr. Fluorescence was then measured using a multimodal plate reader (Biotek Synergy Neo) at an excitation wavelength of 535 nm and emission wavelength of 590 nm to obtain relative fluorescence units. Data analysis was done by subtracting the background fluorescence (only medium blank) value from each reading and then normalizing with the vehicle control (DMSO treated cells) to obtain percent survival/proliferation. Percent survival at different doses was used to calculate IC50 by fitting the curve to the “four-parameter variable slope logistic model” using Prism Graph Pad.

A549 = assay: Cell viability assay (resazurin) in A549; type: cell-based; details: Homo sapiens, 96 hr exposure
Method: as §1

LXR alpha = target: T2, LXR alpha (Homo sapiens, UniProt Q13133); assay: LXR alpha agonist assay (Lanthascreen TR-FRET); type: biochemical; details: LXR alpha-LBD 2.5 nM, read-out: LXR-α EC50
T2 construct: 5 μL of 4×LXR alpha-LBD was added to each well (final concentration 2.5 nM); purchased Thermofisher PV4655
T2 sequence (Q13133 209-447 limits assumed): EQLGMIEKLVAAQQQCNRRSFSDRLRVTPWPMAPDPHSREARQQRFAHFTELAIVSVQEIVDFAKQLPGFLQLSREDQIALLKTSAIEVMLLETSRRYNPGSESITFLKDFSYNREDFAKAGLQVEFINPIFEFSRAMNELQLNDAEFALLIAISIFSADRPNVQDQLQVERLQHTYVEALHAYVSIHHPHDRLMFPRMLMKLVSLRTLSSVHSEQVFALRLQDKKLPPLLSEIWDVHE
Method: EC50 values of compounds against LXR alpha were determined at Integral BioSciences (India) using Lanthascreen TR-FRET (Thermofisher, Cat #PV4655). Assay was performed in a 20 μL final volume in a Black 384-well plate (Corning, Cat #4511). Dose response curve for the compounds were prepared in duplicates with starting concentration at 30 μM and a three-fold titration was performed. The reaction buffer consisted of TR-FRET Coregulator Buffer H. To the compound dilution, 5 μL of 4×LXR alpha-LBD was added to each well (final concentration 2.5 nM). An equal volume (5 μL) containing 4×Fl-D22/Tb-anti GST antibody (final concentration 250 nM/10 nM) was added to initiate the enzyme reaction and the reaction was incubated for 60 min at 22° C. after which the plates were read using BioTek Plate reader for TR-FRET every hour up to 4 hours.
Analysis was done using the standard curve by non-linear regression, variable slope inhibitor curve fits (Graph-Pad Prism) and EC50's of compounds were determined wherever possible.

ApoE = assay: THP-1 Western blotting assay (ApoE); type: cell-based; details: 30 μM; for ApoE normalized with Vehicle treated (DMSO) Control: 18 hour, PMA-differentiated THP-1 cells, densitometry, control = 100; for Fold Difference: ApoE vs DMSO control, THP-1 cells
Method: THP-1 cells (2×10^6 cells/well) were differentiated with PMA (10 ng/mL) for 24 following which the cells were treated with different concentrations (30 μM and 10 μM) of compound for 18 hour in cell culture conditions (5% CO2, 37° C.). The cells were lysed using 1×RIPA (Cat #9806; Cell Signaling Technologies) buffer with Protease inhibitor (1×) (Cat #P830, Sigma) and sonicated. Whole cell lysate was collected and protein estimation was done using Bradford Reagent. The samples were subjected to SDS PAGE Electrophoresis and the protein bands were transferred onto PVDF membrane using wet transfer. The membrane was further blocked with 5% non-fat dry milk and incubated with primary antibody (ApoE; 1:1000, Cat #D7I9N, ABCA1; 1:1000, Cat #96292S; Cell Signaling Technologies) and secondary antibody (Anti rabbit IgG 1:2000, Cat #7074S, Cell Signaling Technologies). The membrane was then developed using ECL reagent (Ref. 32106, Thermo Fisher Scientific) in a gel doc system. The expression of protein was quantified by densitometry analysis.

MDA-MB-231 = assay: Cell viability assay (resazurin) in MDA-MB-231; type: cell-based; details: Homo sapiens, 96 hr exposure, read-out: MDA_MB-231 Cell IC50
Method: as §1

THP1 = assay: Cell viability assay in THP1; type: cell-based; details: Homo sapiens, THP-1
HCT116 = assay: Cell viability assay (resazurin) in HCT116; type: cell-based; details: Homo sapiens, HCT-116; 96 hr exposure
Method: as §1

mouse splenocytes = assay: Mouse splenocytes cytotoxicity assay (CTG); type: cell-based; details: Splenocyte, CD3e/CD28 activated Balb/c splenocytes, 72 hr
Method: IC50 values to look at cytotoxicity of compounds on CD3e/CD28 induced splenocytes, was determined in mouse splenocytes isolated from Balb/c mice. Mouse splenocytes (2.5×10^5 cells/well/160 μl) were activated with Anti-mouse CD3e (0.5 μg/mL, coated overnight at 4° C.; Cat #14-0032-82, eBiosciences) and then incubated with serial dilutions of compounds (3 fold, 8 point dose response starting at 30 μM) and treated with Anti-mouse CD28 (1 μg/mL soluble; Cat #16-0289-81, eBiosciences). Splenocytes were further incubated under cell culture conditions for 72 hr after which assay was terminated by addition of CTG. Plate was incubated for 15 min at 37° C., 5% CO2 and luminescence was measured.

MCF7 = assay: Cell viability assay (resazurin) in MCF7; type: cell-based; details: Homo sapiens, 96 hr exposure
Method: as §1

| SMILES | EC50 (LXR beta) [µM] | IC50 (HepG2) [µM] | IC50 (A549) [µM] | EC50 (LXR alpha) [µM] | ApoE normalized with Vehicle treated (DMSO) Control (ApoE) | Fold Difference (ApoE) | IC50 (MDA-MB-231) [µM] | IC50 (THP1) [µM] | IC50 (HCT116) [µM] | IC50 (mouse splenocytes) [µM] | IC50 (MCF7) [µM] |
| --- | --- | --- | --- | --- | --- | --- | --- | --- | --- | --- | --- |
| CN(C)C(=O)c1ccc(NC2CN(C3CCN(C(=O)[C@@](O)(c4ccccc4)C(F)(F)F)CC3)C2)cc1Cl (single isomer, unassigned) [Compound 1.10] | 0.141 | > 29.6 | > 30 | 26.1 | 221.8 | 2.22 | > 30 |  |  |  |  |
| CC(C)[C@@](O)(C(=O)N1CCC(N2CC(Nc3ccc(C(=O)N(C)C)c(Cl)c3)C2)CC1)C(F)(F)F (single isomer, unassigned) [Compound 1.44] | 10.9 |  | > 30 | > 30 | 156.5 | 1.57 | > 30 | > 30 | > 30 |  |  |
| CC(C)[C@](O)(C(=O)N1CCC(N2CC(Nc3ccc(C(=O)N(C)C)c(Cl)c3)C2)CC1)C(F)(F)F (single isomer, unassigned) [Compound 1.45] | 1.21 |  | > 30 | > 30 | 132.1 | 1.32 | > 30 | > 30 | > 30 |  |  |
| O=c1[nH]ccc2cc(N3CCC(C4CCN(S(=O)(=O)c5ccccc5Cl)CC4)CC3)cc(Cl)c12 [Compound 1.16, 8-chloro-6-(1′-((2-chlorophenyl)sulfonyl)-[4,4′-bipiperidin]-1-yl)isoquinolin-1(2H)-one] |  |  |  |  |  |  |  |  |  | 14.9 |  |
| CC(C)(C(=O)N1CCC(C2CCN(c3cc(Cl)c4c(=O)[nH]ccc4c3)CC2)CC1)C(F)(F)F [Compound 1.23, 8-chloro-6-(1′-(3,3,3-trifluoro-2,2-dimethylpropanoyl)-4,4′-bipiperidin-1-yl)isoquinolin-1(2H)-one] |  |  |  |  |  |  |  |  |  | 1.5 |  |
| CN(C)C(=O)c1ccc(NC2CN(C3CCN(C(=O)C(F)(F)c4ccccc4Cl)CC3)C2)cc1Cl [Compound 1.52, 2-chloro-4-(1-(1-(2-(2-chlorophenyl)-2,2-difluoroacetyl)piperidin-4-yl)azetidin-3-ylamino)-N,N-dimethylbenzamide] | 5.68 | > 30 | > 30 |  |  |  | > 30 | > 30 | > 30 |  | > 30 |
| CN(C)C(=O)c1ccc(N[C@H]2CCCN(C3CCN(C(=O)[C@](O)(c4ccccc4)C(F)(F)F)CC3)C2)cc1Cl [Compound 1.53, 2-chloro-N,N-dimethyl-4-((S)-1′-((R)-3,3,3-trifluoro-2-hydroxy-2-phenylpropanoyl)-1,4′-bipiperidin-3-ylamino)benzamide] | 16.9 | > 30 | > 30 |  |  |  | > 30 | > 30 | > 30 |  | > 30 |
| CC(C)C(O)(C(=O)N1CCC2(CC1)CN(C1CCN(c3ccc(C(=O)N(C)C)c(Cl)c3)CC1)C2)C(F)(F)F (stereo not drawn) [Compound 1.54, 2-chloro-4-(4-(7-(2-hydroxy-3-methyl-2-(trifluoromethyl)butanoyl)-2,7-diazaspiro[3.5]nonan-2-yl)piperidin-1-yl)-N,N-dimethylbenzamide] | > 30 | > 30 | > 30 |  |  |  | > 30 | > 30 | > 30 |  | > 30 |
| CN(C)C(=O)c1ccc(N2CCC(N3CC4(CN(C(=O)[C@](O)(c5ccccc5)C(F)(F)F)C4)C3)CC2)cc1Cl [Compound 1.55, 2-chloro-N,N-dimethyl-4-(4-(6-((R)-3,3,3-trifluoro-2-hydroxy-2-phenylpropanoyl)-2,6-diazaspiro[3.3]heptan-2-yl)piperidin-1-yl)benzamide] | 16.3 | > 30 | > 30 |  |  |  | > 30 | > 30 | > 30 |  | > 30 |
| CN(C)C(=O)c1ccc(N[C@@H]2CCN(C3CCN(C(=O)[C@](O)(c4ccccc4)C(F)(F)F)CC3)C2)cc1Cl [Compound 1.57, 2-chloro-N,N-dimethyl-4-((R)-1-(1-((R)-3,3,3-trifluoro-2-hydroxy-2-phenylpropanoyl)piperidin-4-yl)pyrrolidin-3-ylamino)benzamide] | 2.82 | > 30 | > 30 |  |  |  | > 30 | > 30 | > 30 |  | > 30 |
